Patent US7074824B2, “Pharmaceutical compositions containing beta-lapachone, or derivatives or analogs thereof, and methods of using same” (Arqule, Inc., priority 2001, dated 2006)

Columns and labels:
[1] = Relative solubility of 14C-labeled β-lapachone in aqueous solutions of solubilizing agents; type: physicochemical
Method: In light of the above, two different strategies were used to enhance β-lapachone solubility in aqueous solution. First, β-lapachone was treated with metal chelating agents, such as calcium and magnesium, to form soluble complexes; second, β-lapachone was treated with the solubilizing agents β-cyclodextrin and γ-cyclodextrin to form soluble inclusion complexes. In order to evaluate these four reagents, ^14C-labeled β-lapachone in a small volume of ethanol was added to aqueous solutions of the reagents (or to PBS buffer as a control), then the relative solubility of β-lapachone in each of the solutions was measured in terms of radioactivity remaining in the supernatant after centrifugation.
Specifically, to individual 1.5 ml Eppendorf tubes containing 900 μl of PBS buffer were added the following: 8 mM CaCl2 in PBS buffer, 8 mM of MgCl2 in PBS buffer, 8 mM β-cyclodextrin in PBS buffer, and 8 mM γ-cyclodextrin in PBS buffer. 10 μl of C^14 labeled β-lapachone (40,000 CPM, 0.55 μg) in 75% ethanol was then added to each tube. After vortexing and centrifuging at 13,000 rpm for 10 min, 100 μl of the supernatant solution was counted for radioactivity using a Beckman Scintillation Counter. […] After vortexing and centrifuging at 13,000 rpm for 10 min, 100 μl of the supernatant solution was counted again for radioactivity. […]

[2] = tested on: Human ovarian cancer cells (36M2); assay: Human ovarian cancer xenograft model, β-lapachone in Lipiodol and Taxol®; type: in vivo, athymic female nude mice; details: i.p., 10 cycles
Method: Human ovarian cancer cells (36M2, originally isolated from malignant ascites) were inoculated by i.p. injection into athymic female nude mice 24 h after irradiation. In this model, metastatic foci form approximately 1 week after inoculation, and tumor nodules of the peritoneum and malignant ascites develop in 4–5 weeks. Ten days after tumor inoculation (10×10^6 cells), treatment regimens were initiated. The control group was treated with vehicle alone. In each typical treatment cycle, the β-lapachone alone group was treated with 25–50 mg/kg i.p. of β-lapachone in Lipiodol solution and the Taxol® alone group was treated at 1 mg/kg i.p. (Taxol® formulation diluted in Lipiodol), both followed 24 h later by i.p. injection of vehicle. In the combination group, nude mice were treated with β-lapachone at 25–50 mg/kg, followed 24 h later by Taxol® at 1 mg/kg. All groups were treated for 10 cycles, with a 1-day break between each cycle. […] Host toxicity was evaluated by general appearance and body weight.

In the case of `CC1(C)CCC2=C(O1)c1ccccc1C(=O)C2=O` [β-lapachone], the “β-lapachone present in the supernatant” value ([1]; 0.5 μg β-lapachone added, all five aqueous solutions (PBS, CaCl2, MgCl2, β-cyclodextrin, γ-cyclodextrin)) was ~100%, the “β-lapachone retained in the supernatant” value ([1]; 600 μg β-lapachone added, 8 mM β-cyclodextrin in PBS buffer (only this solution)) was “more than 50%” and the “decrease in tumor number versus control” value ([2]; assessed day 50, β-lapachone 25–50 mg/kg in Lipiodol, Taxol® 1 mg/kg) was ~75%. For the same compound, the “size of the tumor nodules and amount of ascites” value ([2]; laparotomy at day 50) was “considerable reduction in the size of the tumor nodules and the amount of ascites”.
